Measured values taken from ChEMBL document CHEMBL5608199, “Quaternized antimicrobial peptide mimics based on harmane as potent anti-MRSA agents by multi-target mechanism covering cell wall, cell membrane and intracellular targets” (Eur J Med Chem, 2024).
Values after ≈ are worked out from the molar mass of the structure shown. Active and inactive are the calls of the source. The calls are words filed in the database; no cut-off is given here.

Key:
[1] = tested on: Staphylococcus aureus; assay: Antibacterial activity against methicillin-resistant Staphylococcus aureus ATCC 43300 incubated for 18 hrs by two fold serial broth dilution method; format: functional
[2] = tested on: Staphylococcus aureus; assay: Antibacterial activity against methicillin-resistant Staphylococcus aureus CGMCC 1.12409 incubated for 18 hrs by two fold serial broth dilution method; format: functional
[3] = tested on: Staphylococcus aureus; assay: Antibacterial activity against methicillin-resistant Staphylococcus aureus ATCC 33591 incubated for 18 hrs by two fold serial broth dilution method; format: functional
[4] = tested on: Staphylococcus aureus; assay: Antibacterial activity against Staphylococcus aureus ATCC 29213 incubated for 18 hrs by two fold serial broth dilution method; format: functional
[5] = tested on: Staphylococcus aureus; assay: Antibacterial activity against Staphylococcus aureus CMCC 26003 incubated for 18 hrs by two fold serial broth dilution method; format: functional
[6] = tested on: Escherichia coli; assay: Antibacterial activity against Escherichia coli ATCC 8739 incubated for 18 hrs by two fold serial broth dilution method; format: functional
[7] = tested on: Staphylococcus sp.; assay: Antibacterial activity against Staphylococcus sp. 772 assessed as inhibition of bacterial growth incubated for 24 hrs by microdilution method; format: functional
[8] = tested on: Staphylococcus aureus; assay: Antibacterial activity against methicillin-resistant Staphylococcus aureus; format: functional
[9] = tested on: Staphylococcus aureus; assay: Antibacterial activity against methicillin-resistant Staphylococcus aureus clinical isolate M-14 incubated for 18 hrs by two fold serial broth dilution method; format: functional
[10] = tested on: Staphylococcus aureus; assay: Antibacterial activity against methicillin-resistant Staphylococcus aureus clinical isolate M-15 incubated for 18 hrs by two fold serial broth dilution method; format: functional
[11] = tested on: Staphylococcus aureus; assay: Antibacterial activity against methicillin-resistant Staphylococcus aureus clinical isolate M-16 incubated for 18 hrs by two fold serial broth dilution method; format: functional
[12] = tested on: Staphylococcus aureus; assay: Antibacterial activity against methicillin-resistant Staphylococcus aureus clinical isolate M-17 incubated for 18 hrs by two fold serial broth dilution method; format: functional
[13] = tested on: Staphylococcus aureus; assay: Antibacterial activity against methicillin-resistant Staphylococcus aureus clinical isolate M-18 incubated for 18 hrs by two fold serial broth dilution method; format: functional
[14] = tested on: Staphylococcus aureus; assay: Antibacterial activity against methicillin-resistant Staphylococcus aureus clinical isolate M-19 incubated for 18 hrs by two fold serial broth dilution method; format: functional
[15] = tested on: Staphylococcus aureus; assay: Antibacterial activity against methicillin-resistant Staphylococcus aureus clinical isolate M-20 incubated for 18 hrs by two fold serial broth dilution method; format: functional
[16] = tested on: Erythrocyte; assay: Hemolytic activity at sheep Red blood cells at 0.5 to 128 ug/ml; format: toxicity, cell-based, Ovis aries; conditions: dose 0.5-128 µg/ml
[17] = Hemolytic activity at sheep Red blood cells at 256 ug/ml; format: toxicity, cell-based, Ovis aries, Erythrocyte; conditions: sheep red blood cells (erythrocytes), at 256 µg/mL, read-out: Activity
[18] = Cytotoxicity against human HTR-8/SVneo cells assessed as cell viability at 0.5 ug/ml by CCK-8 assay relative to control; format: toxicity, cell-based; conditions: at 0.5 µg/mL, read-out: Activity
[19] = Cytotoxicity against human HTR-8/SVneo cells assessed as cell viability at 8 ug/ml by CCK-8 assay relative to control; format: toxicity, cell-based; conditions: at 8 µg/mL, read-out: Activity
[20] = Stability in sheep plasma assessed as increase in MIC measured after 0 to 6 hrs; format: ADME, cell-free, Ovis aries; conditions: time 0-6 hrs
[21] = tested on: Staphylococcus aureus; assay: Antibacterial activity against methicillin-resistant Staphylococcus aureus ATCC 33591 assessed as inhibition of bacterial growth at 0.5 ug/ml measured after 8 hrs relative to control; format: functional
[22] = tested on: Staphylococcus aureus; assay: Bacteriostatic activity against methicillin-resistant Staphylococcus aureus ATCC 33591 assessed as log reduction in viable bacterial count at 1 to 4 times MIC measured at 10 hrs by time-kill assay; format: functional
[23] = tested on: Staphylococcus aureus; assay: Bactericidal activity against methicillin-resistant Staphylococcus aureus ATCC 33591 assessed as log reduction in viable bacterial count at 8 times MIC measured after 10 hrs by time-kill assay; format: functional
[24] = tested on: Staphylococcus aureus; assay: Antibacterial activity against methicillin-resistant Staphylococcus aureus ATCC 33591 infected in cyclophosphamide treated female KM mouse skin infection model assessed as log reduction in bacterial load in abscess at 13.2 mg/kg administered for 4 days and measured on day 5; format: functional; conditions: time 5 day
[25] = tested on: Staphylococcus aureus; assay: Antibacterial activity against methicillin-resistant Staphylococcus aureus ATCC 33591 infected in cyclophosphamide treated female KM mouse skin infection model assessed as reduction in bacterial load in abscess administered for 4 days and measured on day 5; format: functional, organism-based; conditions: dose 3.3-13.2 mg/kg, time 5.0 day
[26] = tested on: Staphylococcus aureus; assay: Antibacterial activity against methicillin-resistant Staphylococcus aureus ATCC 33591 infected in cyclophosphamide treated female KM mouse skin infection model assessed as log reduction in bacterial load in abscess at 3.3 mg/kg administered for 4 days and measured on day 5; format: functional; conditions: time 5 day
[27] = tested on: Staphylococcus aureus; assay: (§1) Antibacterial activity against methicillin-resistant Staphylococcus aureus ATCC 33591 infected in cyclophosphamide treated female KM mouse skin infection model assessed as reduction in number of bacterial clones in skin at 3.3 to 13.2 mg/kg administered for 4 days and measured on day 5; format: functional, organism-based; conditions: dose 3.3-13.2 mg/kg, time 5.0 day
[28] = tested on: Staphylococcus aureus; assay: as §1, with “reduction in inflammatory cell infiltration at 3.3” for “reduction in number of bacterial clones in skin at 3.3”, “day 5 by H and E staining based analysis” for “day 5”; format: functional, organism-based; conditions: dose 3.3-13.2 mg/kg, time 5.0 day
[29] = tested on: Staphylococcus aureus; assay: Induction of morphological changes in methicillin-resistant Staphylococcus aureus ATCC 33591 assessed as appearance of irregular cell morphology at 1 ug/ml measured after 6 hrs by SEM analysis; format: functional, organism-based; conditions: dose 1.0 µg/ml
[30] = tested on: Staphylococcus aureus; assay: Induction of morphological changes in methicillin-resistant Staphylococcus aureus ATCC 33591 assessed as appearance of cracked cell morphology at 1 ug/ml measured after 6 hrs by SEM analysis; format: functional, organism-based; conditions: dose 1.0 µg/ml
[31] = tested on: Staphylococcus aureus; assay: Induction of morphological changes in methicillin-resistant Staphylococcus aureus ATCC 33591 assessed as appearance of adhesive cell morphology at 1 ug/ml measured after 6 hrs by SEM analysis; format: functional, organism-based; conditions: dose 1.0 µg/ml
[32] = tested on: Staphylococcus aureus; assay: Antibacterial activity against methicillin-resistant Staphylococcus aureus ATCC 33591 assessed as neutralization of negative charge in cell wall by measuring increase in surface potential; format: functional, organism-based; conditions: dose 0-256 µg/ml
[33] = tested on: Lipoteichoic acid; assay: Displacement of BODIPY-TR-cadaverine from methicillin-resistant Staphylococcus aureus ATCC 33591 lipoteichoic acid assessed as increase in fluorescence intensity; conditions: dose 0.5-4 µg/ml
[34] = tested on: Staphylococcus aureus; assay: Antibacterial activity against methicillin-resistant Staphylococcus aureus ATCC 33591 assessed as inhibition of bacterial growth in presence of 0 to 128 ug/ml peptidoglycan by exogenous addition assay (reference value: 0.5 ug/ml); format: functional
[35] = tested on: Cell membrane; assay: Disruption of membrane integrity in methicillin-resistant Staphylococcus aureus ATCC 33591 assessed as appearance of blue and green fluorescence at 1 ug/ml by DAPI/SYTOX Green double staining assay; format: cell membranes; conditions: dose 1.0 µg/ml
[36] = tested on: Cell membrane; assay: Disruption of membrane integrity in methicillin-resistant Staphylococcus aureus ATCC 33591 assessed as increase in fluorescence intensity by PI staining based fluorescence assay; format: cell membranes; conditions: dose 0-4 µg/ml
[37] = tested on: Cell membrane; assay: Disruption of membrane integrity in methicillin-resistant Staphylococcus aureus ATCC 33591 assessed as increase in protein leakage; format: cell membranes; conditions: dose 0-4 µg/ml
[38] = tested on: Cell membrane; assay: Disruption of membrane integrity in methicillin-resistant Staphylococcus aureus ATCC 33591 assessed as increase in nucleic acid leakage; format: cell membranes; conditions: dose 0-4 µg/ml
[39] = tested on: Cell membrane; assay: Disruption of membrane integrity in methicillin-resistant Staphylococcus aureus ATCC 33591 assessed as fold increase in nucleic acid leakage at 1 ug/ml relative to control; format: cell membranes; conditions: dose 1.0 µg/ml
[40] = tested on: Cell membrane; assay: Induction of membrane depolarization in methicillin-resistant Staphylococcus aureus ATCC 33591 assessed as increase in fluorescence intensity at 1 to 4 times MIC measured after 0 to 120 mins by DiSC3(5) staining based assay; format: cell membranes; conditions: time 0-120 min
[41] = tested on: Cell membrane; assay: Induction of membrane depolarization in methicillin-resistant Staphylococcus aureus ATCC 33591 assessed as increase in fluorescence intensity at 1 to 4 times MIC by DiSC3(5) staining based assay; format: cell membranes; conditions: time 0-120 min, TDE = time-dependent effect
[42] = tested on: Staphylococcus aureus; assay: Antibacterial activity against methicillin-resistant Staphylococcus aureus ATCC 33591 assessed as reduction in metabolic activity by alamar blue assay; format: functional, organism-based; conditions: dose 0-4 µg/ml
[43] = tested on: Staphylococcus aureus; assay: Antibacterial activity against methicillin-resistant Staphylococcus aureus ATCC 33591 assessed as reduction in LDH activity; format: functional, organism-based; conditions: dose 0-4 µg/ml
[44] = tested on: Staphylococcus aureus; assay: Antibacterial activity against methicillin-resistant Staphylococcus aureus ATCC 33591 assessed as reduction in LDH activity at 4 ug/ml measured after 8 hrs relative to control; format: functional; design: scale not given: the % may be the effect or the level left; conditions: dose 4 µg/ml
[45] = tested on: Staphylococcus aureus; assay: Induction of ROS generation in methicillin-resistant Staphylococcus aureus ATCC 33591 assessed as increase in ROS level; format: functional, organism-based; conditions: dose 0-4 µg/ml
[46] = tested on: Staphylococcus aureus; assay: Induction of ROS generation in methicillin-resistant Staphylococcus aureus ATCC 33591 assessed as fold increase in ROS level at 0.5 ug/ml relative to control; format: functional; conditions: dose 0.5 µg/ml
[47] = tested on: Staphylococcus aureus; assay: Induction of oxidative damage in methicillin-resistant Staphylococcus aureus ATCC 33591 assessed as loss of GSH activity; format: functional, organism-based; conditions: dose 0-4 µg/ml
[48] = tested on: Staphylococcus aureus; assay: Induction of oxidative damage in methicillin-resistant Staphylococcus aureus ATCC 33591 assessed as reduction in SOD activity; format: functional, organism-based; conditions: dose 0-4 µg/ml
[49] = tested on: Calf thymus DNA; assay: Binding affinity to calf thymus DNA assessed as reduction in fluorescence intensity at 3 x 10^-5M by fluorescence spectroscopy; format: nucleic-acid assay; conditions: Bos taurus; dose 3.0 10^-5M
[50] = tested on: Calf thymus DNA; assay: Binding affinity to calf thymus DNA assessed as increase in absorption wavelength intensity at 0 to 2.4 x 10^-5M by absorption spectroscopy; format: nucleic-acid assay; conditions: Bos taurus; dose 0-2.4 10^-5M

In the case of `Cc1nccc2c1[nH]c1ccccc12` [HARMAN], the MIC [1] was 128 µg/mL (≈ 702 µM), the MIC [2] was > 128 µg/mL and the MIC [3] was 128 µg/mL (≈ 702 µM). For the same compound, the MIC [4] was 128 µg/mL (≈ 702 µM), the MIC [5] was 128 µg/mL (≈ 702 µM) and the MIC [6] was 8 µg/mL (≈ 43.9 µM). The MIC [7] was 18 µg/mL (≈ 98.8 µM).

`COc1ccc2c(c1)c1cc[n+](C)cc1n2CCCCCCCCn1c2ccc(OC)cc2c2cc[n+](C)cc21.[I-].[I-]` gave an MIC [8] of 2 µg/mL.

In the case of `Cc1c2c(cc[n+]1C)c1ccccc1n2CCCCCCCCn1c2ccccc2c2cc[n+](C)c(C)c21.[I-].[I-]`, the MIC [1] was 2 µg/mL, the MIC [2] was 1 µg/mL and the MIC [3] was 0.5 µg/mL. It also gave an MIC [4] of 4 µg/mL, an MIC [5] of 0.5 µg/mL and an MIC [6] of 8 µg/mL. For the same compound, the MIC [9] was 1 µg/mL, the MIC [10] was 2 µg/mL and the MIC [11] was 1 µg/mL. For the same compound, the MIC [12] was 1 µg/mL, the MIC [13] was 2 µg/mL and the MIC [14] was 1 µg/mL. For the same compound, the MIC [15] was 1 µg/mL, the Activity [16] was “Non-Toxic” and the hemolysis at 256 ug/ml [17] was 7.71%. For the same compound, the viability at 0.5 ug/ml [18] was 110%, the viability at 8 ug/ml [19] was 97.8% and the Stability [20] was “Stable”. The inhibition at 0.5 µg/mL [21] was 100%, the “log(activity)” value [22] was <3 and the “log(activity)” value [23] was 3.44. For the same compound, the “log(activity)” value [24] was 4.06, the Activity [25] was “Dose-Dependent Effect” and the “log(activity)” value [26] was 1.27. For the same compound, the Activity [27] was “Active”, the Activity [28] was “Active” and the Activity [29] was “Active”. The Activity [30] was “Active”, the Activity [31] was “Active” and the Activity [32] was “Dose-Dependent Effect”. For the same compound, the Activity [33] was “Dose-Dependent Effect”, the MIC [34] was 8 µg/mL and the Activity [35] was “Active”. The Activity [36] was “Dose-Dependent Effect”, the Activity [37] was “Dose-Dependent Effect” and the Activity [38] was “Dose-Dependent Effect”. The fold change (FC) [39] was 28, the Activity [40] was “Dose-Dependent Effect” and the Activity [41] was “Tde”. The Activity [42] was “Dose-Dependent Effect”, the Activity [43] was “Dose-Dependent Effect” and the Activity [44] was 87.21%. The Activity [45] was “Dose-Dependent Effect”, the “fold change (FC)” value [46] was 1.25 and the Activity [47] was “Dose-Dependent Effect”. The Activity [48] was “Dose-Dependent Effect”, the Activity [49] was “Active” and the Activity [50] was “Active”.
